US10189810B2, “Pyrazolyl-substituted pyridone compounds as serine protease inhibitors” (VERSEON CORPORATION, priority 2014, dated 2019)

Columns and labels:
[1] = target: T1, Human KLKB1 protein (Homo sapiens, UniProt P03952); experiment: KLKB1 kallikrein protease inhibition assay (chromogenic substrate S-2302); format: biochemical; conditions: 3 nM KLKB1, 250 μM S-2302, 10 min pre-incubation, RT, read at 405 nm
T1 construct: purchased Enzyme Research Labs
Procedure: The KLKB1 kallikrein activity reported herein (e.g., Table A) was obtained as follows. Human KLKB1 protein was obtained from Enzyme Research Labs. The chromogenic substrate S-2302 was obtained from DiaPharma. KLKB1 was assayed in buffer containing 0.05 M Tris (pH 7.4), 0.01 M NaCl and 0.2% w/v PEG-8000. The final concentration of enzyme used was 3 nM KLKB1. The final concentration of substrate used was 250 μM S-2302 for KLKB1. All assays were performed in 96-well microtiter plates at room temperature (RT). […] The plate was read at 10 minutes after substrate addition. The IC50 was calculated by plotting the percent (%) inhibition against compound concentration and fitting the data to a constrained four parameter sigmoidal curve, as known in the art.

[2] = target: T2, Human thrombin (Homo sapiens, UniProt P00734); experiment: thrombin protease inhibition assay (chromogenic substrate S-2238); format: biochemical; conditions: 3 nM thrombin, 125 μM S-2238, 10 min pre-incubation, RT, read at 405 nm
T2 construct: Thrombin (fIIa, the active form of prothrombin) is another serine protease; purchased Haematologic Technologies Inc
Procedure: The thrombin activity reported herein (e.g., Table A) was obtained as follows. […] Thrombin was assayed in buffer containing 0.05 M Tris (pH 7.4), 0.015 M NaCl and 0.01% PEG-8000. The final concentration of enzyme used was 3 nM thrombin. […] All assays were performed in 96-well microtiter plates at room temperature (RT). […] Inhibitor IC50 values were determined by adding test compound as ten point, three-fold serial dilutions in buffer solution, as known in the art. The plate was read at 10 minutes after substrate addition. The IC50 was calculated by plotting the percent (%) inhibition against compound concentration and fitting the data to a constrained four parameter sigmoidal curve, as known in the art.

[3] = test system: malignant breast tumors; conditions: treated mice, cited from earlier work

T1 sequence (P03952 391-638 limits assumed): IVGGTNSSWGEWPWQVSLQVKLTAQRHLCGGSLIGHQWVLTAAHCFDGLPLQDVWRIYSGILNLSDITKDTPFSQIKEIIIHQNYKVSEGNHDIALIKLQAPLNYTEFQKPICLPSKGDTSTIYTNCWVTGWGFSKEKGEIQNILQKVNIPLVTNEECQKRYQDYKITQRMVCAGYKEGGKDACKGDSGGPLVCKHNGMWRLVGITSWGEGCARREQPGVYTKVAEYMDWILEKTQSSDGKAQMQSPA
T1 sequence (P03952 20-390 partner limits assumed): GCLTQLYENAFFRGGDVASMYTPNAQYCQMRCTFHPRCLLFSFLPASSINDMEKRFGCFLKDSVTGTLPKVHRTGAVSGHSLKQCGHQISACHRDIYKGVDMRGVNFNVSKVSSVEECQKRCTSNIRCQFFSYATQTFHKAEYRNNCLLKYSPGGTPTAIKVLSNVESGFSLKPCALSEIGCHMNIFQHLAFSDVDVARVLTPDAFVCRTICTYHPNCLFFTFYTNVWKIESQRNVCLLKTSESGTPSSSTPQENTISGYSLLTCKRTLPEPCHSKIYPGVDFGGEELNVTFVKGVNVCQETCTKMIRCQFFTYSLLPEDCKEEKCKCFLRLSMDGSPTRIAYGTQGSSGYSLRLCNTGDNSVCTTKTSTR

| IC50 [1] [nM] | IC50 [2] [nM] | Structure (SMILES) | reduction in tumor volume ([3]; at 4 weeks) [%] | reduced tumor cells in the blood and liver micrometastases [3] |
| --- | --- | --- | --- | --- |
| < 100 | < 100 | O=C(c1ccoc1)n1nc(-c2ccn(Cc3cccnc3)c(=O)c2)cc1NCc1ccc(Cl)s1 [Entry 19, 4-(5-[(5-chlorothiophen-2-yl)methyl]amino-1-(furan-3-carbonyl)-1H-pyrazol-3-yl)-1-(pyridin-3-ylmethyl)-1,2-dihydropyridin-2-one] | – | – |
| 1000 to 10000 | 100 to 1000 | O=C(Cn1ccc(-c2cc(NCc3ccc(Cl)s3)n(C(=O)c3ccoc3)n2)cc1=O)N1CCOCC1 [Entry 20, 4-(5-[(5-chlorothiophen-2-yl)methyl]amino-1-(furan-3-carbonyl)-1H-pyrazol-3-yl)-1-[2-(morpholin-4-yl)-2-oxoethyl]-1,2-dihydropyridin-2-one] | – | – |
| 100 to 1000 | < 100 | O=C(c1ccoc1)n1nc(-c2ccn(CCN3CCOCC3)c(=O)c2)cc1NCc1ccc(Cl)s1 [Entry 21, 4-(5-[(5-chlorothiophen-2-yl)methyl]amino-1-(furan-3-carbonyl)-1H-pyrazol-3-yl)-1-[2-(morpholin-4-yl)ethyl]-1,2-dihydropyridin-2-one] | – | – |
| 100 to 1000 | < 100 | O=C(c1ccsc1)n1nc(-c2cc[nH]c(=O)c2)cc1NCc1ccc(Cl)s1 [Entry 22, 4-(5-[(5-chlorothiophen-2-yl)methyl]amino-1-(thiophene-3-carbonyl)-1H-pyrazol-3-yl)-1,2-dihydropyridin-2-one] | – | – |
| 100 to 1000 | < 100 | COCCn1ccc(-c2cc(NCc3ccc(Cl)s3)n(C(=O)c3ccsc3)n2)cc1=O [Entry 23, 4-(5-[(5-chlorothiophen-2-yl)methyl]amino-1-(thiophene-3-carbonyl)-1H-pyrazol-3-yl)-1-(2-methoxyethyl)-1,2-dihydropyridin-2-one] | – | – |
| < 100 | < 100 | O=C(c1ccsc1)n1nc(-c2ccn(Cc3ccccn3)c(=O)c2)cc1NCc1ccc(Cl)s1 [Entry 24, 4-(5-[(5-chlorothiophen-2-yl)methyl]amino-1-(thiophene-3-carbonyl)-1H-pyrazol-3-yl)-1-(pyridin-2-ylmethyl)-1,2-dihydropyridin-2-one] | – | – |
| < 100 | < 100 | O=C(c1ccsc1)n1nc(-c2ccn(Cc3cccnc3)c(=O)c2)cc1NCc1ccc(Cl)s1 [Entry 25, 4-(5-[(5-chlorothiophen-2-yl)methyl]amino-1-(thiophene-3-carbonyl)-1H-pyrazol-3-yl)-1-(pyridin-3-ylmethyl)-1,2-dihydropyridin-2-one] | – | – |
| 1000 to 10000 | 100 to 1000 | O=C(Cn1ccc(-c2cc(NCc3ccc(Cl)s3)n(C(=O)c3ccsc3)n2)cc1=O)N1CCOCC1 [Entry 26, 4-(5-[(5-chlorothiophen-2-yl)methyl]amino-1-(thiophene-3-carbonyl)-1H-pyrazol-3-yl)-1-[2-(morpholin-4-yl)-2-oxoethyl]-1,2-dihydropyridin-2-one] | – | – |
| 100 to 1000 | < 100 | O=C(c1ccsc1)n1nc(-c2ccn(CCN3CCOCC3)c(=O)c2)cc1NCc1ccc(Cl)s1 [Entry 27, 4-(5-[(5-chlorothiophen-2-yl)methyl]amino-1-(thiophene-3-carbonyl)-1H-pyrazol-3-yl)-1-[2-(morpholin-4-yl)ethyl]-1,2-dihydropyridin-2-one] | – | – |
| > 100000 | > 100000 | O=C(c1ccsc1)n1nc(-c2cc(-c3ccccc3)[nH]c(=O)c2)cc1NCc1ccc(Cl)s1 [Entry 28, 4-(5-[(5-chlorothiophen-2-yl)methyl]amino-1-(thiophene-3-carbonyl)-1H-pyrazol-3-yl)-6-phenyl-1,2-dihydropyridin-2-one] | – | – |
| > 100000 | > 100000 | O=c1cc(-c2cc(NCc3ccc(Cl)s3)[nH]n2)cc[nH]1 [Entry 29, 4-(5-[(5-chlorothiophen-2-yl)methyl]amino-1H-pyrazol-3-yl)-1,2-dihydropyridin-2-one] | – | – |
| > 100000 | > 100000 | O=c1cc(-c2cc(NCc3ccc(Cl)s3)[nH]n2)ccn1Cc1cccnc1 [Entry 30, 4-(5-[(5-chlorothiophen-2-yl)methyl]amino-1H-pyrazol-3-yl)-1-(pyridin-3-ylmethyl)-1,2-dihydropyridin-2-one] | – | – |
| 10000 to 100000 | 1000 to 10000 | CC(C)(C)C(=O)n1nc(-c2c[nH]c(=O)c(-c3ccccc3)c2)cc1NCc1ccc(Cl)s1 [Entry 35, 5-(5-[(5-chlorothiophen-2-yl)methyl]amino-1-(2,2-dimethylpropanoyl)-1H-pyrazol-3-yl)-3-phenyl-1,2-dihydropyridin-2-one] | – | – |
| 1000 to 10000 | 100 to 1000 | O=C(c1ccsc1)n1nc(-c2ccc(=O)[nH]c2)cc1NCc1ccc(Cl)s1 [Entry 37, 5-(5-[(5-chlorothiophen-2-yl)methyl]amino-1-(thiophene-3-carbonyl)-1H-pyrazol-3-yl)-1,2-dihydropyridin-2-one] | – | – |
| > 100000 | > 100000 | O=c1ccc(-c2cc(NCc3ccc(Cl)s3)[nH]n2)c[nH]1 [Entry 38, 5-(5-[(5-chlorothiophen-2-yl)methyl]amino-1H-pyrazol-3-yl)-1,2-dihydropyridin-2-one] | – | – |
| 10000 to 100000 | < 100 | CC(C)(C)C(=O)n1nc(-c2cc(Br)c[nH]c2=O)cc1NCc1ccc(Cl)s1 [Entry 39, 5-bromo-3-(5-[(5-chlorothiophen-2-yl)methyl]amino-1-(2,2-dimethylpropanoyl)-1H-pyrazol-3-yl)-1,2-dihydropyridin-2-one] | – | – |
| 1000 to 10000 | < 100 | CC(C)(C)C(=O)n1nc(-c2cc(Br)cn(CC(=O)N3CCOCC3)c2=O)cc1NCc1ccc(Cl)s1 [Entry 40, 5-bromo-3-(5-[(5-chlorothiophen-2-yl)methyl]amino-1-(2,2-dimethylpropanoyl)-1H-pyrazol-3-yl)-1-[2-(morpholin-4-yl)-2-oxoethyl]-1,2-dihydropyridin-2-one] | – | – |
| 100 to 1000 | < 100 | O=C(c1ccsc1)n1nc(-c2cc(Br)c[nH]c2=O)cc1NCc1ccc(Cl)s1 [Entry 41, 5-bromo-3-(5-[(5-chlorothiophen-2-yl)methyl]amino-1-(thiophene-3-carbonyl)-1H-pyrazol-3-yl)-1,2-dihydropyridin-2-one] | – | – |
| 10000 to 100000 | > 100000 | O=c1[nH]cc(Br)cc1-c1cc(NCc2ccc(Cl)s2)[nH]n1 [Entry 42, 5-bromo-3-(5-[(5-chlorothiophen-2-yl)methyl]amino-1H-pyrazol-3-yl)-1,2-dihydropyridin-2-one] | – | – |
| 10000 to 100000 | < 100 | C=Cc1ccc(-c2cc(NCc3ccc(Cl)s3)n(C(=O)C(C)(C)C)n2)[nH]c1=O [Entry 46, 6-(5-[(5-chlorothiophen-2-yl)methyl]amino-1-(2,2-dimethylpropanoyl)-1H-pyrazol-3-yl)-3-ethenyl-1,2-dihydropyridin-2-one] | – | – |
| > 100000 | > 100000 | O=c1cccc(-c2cc(NCc3ccc(Cl)s3)[nH]n2)[nH]1 [Entry 47, 6-(5-[(5-chlorothiophen-2-yl)methyl]amino-1H-pyrazol-3-yl)-1,2-dihydropyridin-2-one] | – | – |
| 10000 to 100000 | < 100 | CC(C)(C)C(=O)n1nc(-c2cc(Br)[nH]c(=O)c2)cc1NCc1ccc(Cl)s1 [Entry 48, 6-bromo-4-(5-[(5-chlorothiophen-2-yl)methyl]amino-1-(2,2-dimethylpropanoyl)-1H-pyrazol-3-yl)-1,2-dihydropyridin-2-one] | – | – |
| – | – | CCCCCCOC(=O)N=C(N)c1ccc(NCc2nc3cc(C(=O)N(CCC(=O)OCC)c4ccccn4)ccc3n2C)cc1 [dabigatran etexilate] | 50 | 50-60% |
